Experimental data published in ChEMBL document CHEMBL3763052, “Novel N-acyl-carbazole derivatives as 5-HT7R antagonists” (Eur J Med Chem, 2016).

target: T1, 5-hydroxytryptamine receptor 3A (Homo sapiens) (UniProt P46098); assay: Binding affinity to recombinant 5-HT3 receptor (unknown origin) at 10 uM after 1.5 hrs by radioligand displacement assay
T1 sequence (whole entry): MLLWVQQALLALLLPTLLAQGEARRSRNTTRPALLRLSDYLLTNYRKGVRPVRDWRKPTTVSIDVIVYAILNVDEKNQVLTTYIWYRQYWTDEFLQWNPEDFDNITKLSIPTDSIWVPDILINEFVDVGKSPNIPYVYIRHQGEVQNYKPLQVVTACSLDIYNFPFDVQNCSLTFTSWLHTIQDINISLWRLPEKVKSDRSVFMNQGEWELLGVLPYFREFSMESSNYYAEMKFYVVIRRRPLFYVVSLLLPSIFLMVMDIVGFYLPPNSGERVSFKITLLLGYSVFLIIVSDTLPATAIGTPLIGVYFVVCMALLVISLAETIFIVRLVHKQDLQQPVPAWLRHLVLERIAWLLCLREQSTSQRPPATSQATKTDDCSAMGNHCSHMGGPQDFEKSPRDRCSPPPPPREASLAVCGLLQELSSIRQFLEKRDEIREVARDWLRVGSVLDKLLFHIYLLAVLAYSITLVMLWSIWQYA

| Compound | inhibition |
| --- | --- |
| COc1ccccc1N1CCN(CCCCC(=O)n2c3ccccc3c3ccccc32)CC1 | 24% |
| O=C(CCCCCN1CCN(c2ccccc2O)CC1)n1c2ccccc2c2ccccc21 | 41% |
| O=C(CCCCN1CCN(c2ccccc2O)CC1)n1c2ccccc2c2ccccc21 | 41% |

target: T2, 5-hydroxytryptamine receptor 7 (Homo sapiens, UniProt P34969); assay: Displacement of [3H]LSD from 5-HT7 receptor (unknown origin) expressed in CHO-K1 cells by liquid scintillation counting method; format: cell-based
T2 sequence (P34969 whole entry): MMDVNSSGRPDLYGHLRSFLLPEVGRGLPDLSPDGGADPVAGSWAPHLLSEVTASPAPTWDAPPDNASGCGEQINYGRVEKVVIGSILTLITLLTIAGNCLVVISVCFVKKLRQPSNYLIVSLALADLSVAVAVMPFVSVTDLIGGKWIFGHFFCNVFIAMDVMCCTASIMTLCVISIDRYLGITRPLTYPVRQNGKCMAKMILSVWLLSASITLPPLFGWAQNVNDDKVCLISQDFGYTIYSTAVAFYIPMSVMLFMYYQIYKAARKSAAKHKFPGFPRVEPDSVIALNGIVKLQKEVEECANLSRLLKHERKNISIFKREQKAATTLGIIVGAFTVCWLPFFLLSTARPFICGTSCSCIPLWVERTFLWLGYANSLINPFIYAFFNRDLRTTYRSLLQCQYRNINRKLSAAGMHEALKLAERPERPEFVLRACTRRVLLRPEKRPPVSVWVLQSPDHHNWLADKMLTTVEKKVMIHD

| Compound | Ki |
| --- | --- |
| CC(=O)N1CCN(CCCCCC(=O)n2c3ccccc3c3ccccc32)CC1 | 2340 nM |
| O=C(CCCCN1CCC(Cc2ccccc2)CC1)n1c2ccccc2c2ccccc21 | 312 nM |
| O=C(CCCCCN1CCC(Cc2ccccc2)CC1)n1c2ccccc2c2ccccc21 | 252 nM |
| COc1ccccc1N1CCN(CCCCC(=O)n2c3ccccc3c3ccccc32)CC1 | 30 nM |
| O=C(CCCCN1CCC(c2ccccc2)CC1)n1c2ccccc2c2ccccc21 | 153 nM |
| O=C(CCCCCN1CCC(c2ccccc2)CC1)n1c2ccccc2c2ccccc21 | 157 nM |
| CCCCN(C)CCCCC(=O)n1c2ccccc2c2ccccc21 | 1280 nM |
| O=C(CCCCN1CCCCCC1)n1c2ccccc2c2ccccc21 | 949 nM |
| O=C(CCCCCN1CCOCC1)n1c2ccccc2c2ccccc21 | 1310 nM |
| CCCCN(C)CCCCCC(=O)n1c2ccccc2c2ccccc21 | 680 nM |
| O=C(CCCCN1CCCC1)n1c2ccccc2c2ccccc21 | 2160 nM |
| CN(CCCCC(=O)n1c2ccccc2c2ccccc21)Cc1ccccc1 | 513 nM |
| O=C(CCCCCN1CCCCCC1)n1c2ccccc2c2ccccc21 | 616 nM |
| O=C(CCCCCN1CCCC1)n1c2ccccc2c2ccccc21 | 1050 nM |
| O=C(CCCCCN1CCN(c2ccccc2O)CC1)n1c2ccccc2c2ccccc21 | 38 nM |
| CC(=O)N1CCN(CCCCC(=O)n2c3ccccc3c3ccccc32)CC1 | 1070 nM |
| CC1CC(C)CN(CCCCC(=O)n2c3ccccc3c3ccccc32)C1 (stereo unspecified) | 1400 nM |
| CC1CCCN(CCCCCC(=O)n2c3ccccc3c3ccccc32)C1 (stereo unspecified) | 550 nM |
| O=C(CCCCN1CCN(c2ccccc2O)CC1)n1c2ccccc2c2ccccc21 | 86 nM |
| CC1CC(C)CN(CCCCCC(=O)n2c3ccccc3c3ccccc32)C1 (stereo unspecified) | 833 nM |
| CN1CCN(CCCCCC(=O)n2c3ccccc3c3ccccc32)CC1 | 1910 nM |
| CC1CCN(CCCCC(=O)n2c3ccccc3c3ccccc32)CC1 | 592 nM |

species on record: Homo sapiens; assay: Selectivity index, ratio of Ki for recombinant 5-HT1A receptor (unknown origin) to Ki for recombinant 5-HT7 receptor (unknown origin)

| Compound | Ratio Ki |
| --- | --- |
| COc1ccccc1N1CCN(CCCCC(=O)n2c3ccccc3c3ccccc32)CC1 | 4.1 |
| O=C(CCCCCN1CCN(c2ccccc2O)CC1)n1c2ccccc2c2ccccc21 | 3.9 |
| O=C(CCCCN1CCN(c2ccccc2O)CC1)n1c2ccccc2c2ccccc21 | 0.26 |

system: Mus musculus; assay: Antidepressant activity in ICR mouse assessed as immobility time at 50 mg/kg, iv administered 30 mins before testing by forced swim test (reference value: 159.1 sec); format: functional

| Compound | Time |
| --- | --- |
| CNCCC(Oc1ccc(C(F)(F)F)cc1)c1ccccc1 (stereo unspecified) [FLUOXETINE] | 83.9 s |

target: 5-hydroxytryptamine receptor 2B (Homo sapiens, UniProt P41595); assay: Binding affinity to recombinant 5-HT2B receptor (unknown origin) after 1.5 hrs by radioligand displacement assay
Sequence (P41595 whole entry): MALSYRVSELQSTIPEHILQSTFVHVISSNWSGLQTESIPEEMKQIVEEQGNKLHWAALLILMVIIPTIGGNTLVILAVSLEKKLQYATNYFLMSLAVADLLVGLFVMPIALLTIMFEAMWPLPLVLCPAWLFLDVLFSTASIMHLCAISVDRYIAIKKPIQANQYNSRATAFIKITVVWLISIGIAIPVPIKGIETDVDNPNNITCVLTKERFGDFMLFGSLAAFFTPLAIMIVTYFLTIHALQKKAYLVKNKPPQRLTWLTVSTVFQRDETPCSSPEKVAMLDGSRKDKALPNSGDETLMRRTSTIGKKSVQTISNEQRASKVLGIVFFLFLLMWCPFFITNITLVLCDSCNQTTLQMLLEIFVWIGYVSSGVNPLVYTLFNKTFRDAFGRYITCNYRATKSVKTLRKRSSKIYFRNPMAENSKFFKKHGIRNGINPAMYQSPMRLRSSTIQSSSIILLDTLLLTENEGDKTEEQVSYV

| Compound | Ki |
| --- | --- |
| COc1ccccc1N1CCN(CCCCC(=O)n2c3ccccc3c3ccccc32)CC1 | 93 nM |
| O=C(CCCCCN1CCN(c2ccccc2O)CC1)n1c2ccccc2c2ccccc21 | 101 nM |
| O=C(CCCCN1CCN(c2ccccc2O)CC1)n1c2ccccc2c2ccccc21 | 83 nM |

target: 5-hydroxytryptamine receptor 1D (Homo sapiens, UniProt P28221); assay: Binding affinity to recombinant 5-HT1D receptor (unknown origin) after 1.5 hrs by radioligand displacement assay
Sequence (P28221 whole entry): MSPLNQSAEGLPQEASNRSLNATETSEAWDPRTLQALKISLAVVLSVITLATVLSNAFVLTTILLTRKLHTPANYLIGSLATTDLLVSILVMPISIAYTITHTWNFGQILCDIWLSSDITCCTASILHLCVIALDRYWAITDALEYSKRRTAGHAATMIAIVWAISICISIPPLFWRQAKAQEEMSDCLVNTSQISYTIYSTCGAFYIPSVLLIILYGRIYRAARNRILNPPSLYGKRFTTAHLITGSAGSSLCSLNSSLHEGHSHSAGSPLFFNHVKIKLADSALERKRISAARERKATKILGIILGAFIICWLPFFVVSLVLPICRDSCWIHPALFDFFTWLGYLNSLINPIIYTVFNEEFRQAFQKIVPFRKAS

| Compound | Ki |
| --- | --- |
| COc1ccccc1N1CCN(CCCCC(=O)n2c3ccccc3c3ccccc32)CC1 | 462 nM |
| O=C(CCCCCN1CCN(c2ccccc2O)CC1)n1c2ccccc2c2ccccc21 | 28 nM |
| O=C(CCCCN1CCN(c2ccccc2O)CC1)n1c2ccccc2c2ccccc21 | 1400 nM |

target: T3, 5-hydroxytryptamine receptor 6 (Homo sapiens, UniProt P50406); assay: Binding affinity to recombinant 5-HT6 receptor (unknown origin) after 1.5 hrs by radioligand displacement assay
T3 sequence (P50406 whole entry): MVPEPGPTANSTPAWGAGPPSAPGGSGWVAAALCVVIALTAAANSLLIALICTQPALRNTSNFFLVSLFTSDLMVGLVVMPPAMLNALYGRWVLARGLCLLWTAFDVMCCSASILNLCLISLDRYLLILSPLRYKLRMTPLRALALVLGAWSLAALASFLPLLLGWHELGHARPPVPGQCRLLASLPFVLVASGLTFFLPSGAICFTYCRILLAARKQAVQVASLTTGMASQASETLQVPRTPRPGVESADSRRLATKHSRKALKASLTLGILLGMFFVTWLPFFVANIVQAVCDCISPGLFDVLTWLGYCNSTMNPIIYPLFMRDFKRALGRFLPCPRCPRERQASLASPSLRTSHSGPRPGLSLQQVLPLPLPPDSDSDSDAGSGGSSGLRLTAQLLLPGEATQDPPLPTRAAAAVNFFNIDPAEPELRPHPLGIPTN

| Compound | Ki |
| --- | --- |
| O=C(CCCCCN1CCN(c2ccccc2O)CC1)n1c2ccccc2c2ccccc21 | 595 nM |
| O=C(CCCCN1CCN(c2ccccc2O)CC1)n1c2ccccc2c2ccccc21 | 879 nM |

target: T4, 5-hydroxytryptamine receptor 2A (Homo sapiens, UniProt P28223); assay: Binding affinity to recombinant 5-HT2A receptor (unknown origin) after 1.5 hrs by radioligand displacement assay
T4 sequence (P28223 whole entry): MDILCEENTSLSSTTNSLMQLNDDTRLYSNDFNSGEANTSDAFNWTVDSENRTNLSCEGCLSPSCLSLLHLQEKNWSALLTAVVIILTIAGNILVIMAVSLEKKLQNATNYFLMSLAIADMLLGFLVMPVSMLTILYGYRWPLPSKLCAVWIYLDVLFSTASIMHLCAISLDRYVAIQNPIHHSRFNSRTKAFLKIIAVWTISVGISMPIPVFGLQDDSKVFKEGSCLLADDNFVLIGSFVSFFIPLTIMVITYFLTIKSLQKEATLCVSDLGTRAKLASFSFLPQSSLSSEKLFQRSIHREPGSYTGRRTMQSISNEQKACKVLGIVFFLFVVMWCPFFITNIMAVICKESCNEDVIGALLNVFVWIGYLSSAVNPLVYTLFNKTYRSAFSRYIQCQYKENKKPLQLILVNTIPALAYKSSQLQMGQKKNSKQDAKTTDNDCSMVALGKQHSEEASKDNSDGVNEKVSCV

| Compound | Ki |
| --- | --- |
| COc1ccccc1N1CCN(CCCCC(=O)n2c3ccccc3c3ccccc32)CC1 | 451 nM |
| O=C(CCCCN1CCN(c2ccccc2O)CC1)n1c2ccccc2c2ccccc21 | 257 nM |

target: T3, 5-hydroxytryptamine receptor 6; assay: Binding affinity to recombinant 5-HT6 receptor (unknown origin) at 10 uM after 1.5 hrs by radioligand displacement assay

| Compound | inhibition |
| --- | --- |
| COc1ccccc1N1CCN(CCCCC(=O)n2c3ccccc3c3ccccc32)CC1 | 44% |

species on record: Homo sapiens; assay: Selectivity index, ratio of Ki for recombinant 5-HT5 receptor (unknown origin) to Ki for recombinant 5-HT7 receptor (unknown origin)

| Compound | Ratio Ki |
| --- | --- |
| COc1ccccc1N1CCN(CCCCC(=O)n2c3ccccc3c3ccccc32)CC1 | 0.17 |
| O=C(CCCCCN1CCN(c2ccccc2O)CC1)n1c2ccccc2c2ccccc21 | 25 |
| O=C(CCCCN1CCN(c2ccccc2O)CC1)n1c2ccccc2c2ccccc21 | 3.9 |

target: T2, 5-hydroxytryptamine receptor 7; assay: Displacement of [3H]LSD from 5-HT7 receptor (unknown origin) expressed in CHO-K1 cells at 10 uM by liquid scintillation counting method; format: cell-based

| Compound | inhibition |
| --- | --- |
| O=C(CCCCN1CCOCC1)n1c2ccccc2c2ccccc21 | 47% |
| CN1CCN(CCCCC(=O)n2c3ccccc3c3ccccc32)CC1 | 40% |

target: T5, 5-hydroxytryptamine receptor 1B (Homo sapiens, UniProt P28222); assay: Binding affinity to recombinant 5-HT1B receptor (unknown origin) after 1.5 hrs by radioligand displacement assay
T5 sequence (P28222 whole entry): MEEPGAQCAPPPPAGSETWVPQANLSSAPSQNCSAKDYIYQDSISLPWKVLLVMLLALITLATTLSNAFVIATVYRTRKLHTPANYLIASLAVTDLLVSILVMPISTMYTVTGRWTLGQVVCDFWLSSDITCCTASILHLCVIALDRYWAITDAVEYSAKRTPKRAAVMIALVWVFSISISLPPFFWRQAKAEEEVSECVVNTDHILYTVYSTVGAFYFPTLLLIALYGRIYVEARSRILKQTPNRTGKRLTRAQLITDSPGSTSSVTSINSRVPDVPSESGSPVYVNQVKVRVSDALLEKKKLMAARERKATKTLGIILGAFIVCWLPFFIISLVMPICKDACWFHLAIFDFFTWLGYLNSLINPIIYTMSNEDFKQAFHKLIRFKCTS

| Compound | Ki |
| --- | --- |
| COc1ccccc1N1CCN(CCCCC(=O)n2c3ccccc3c3ccccc32)CC1 | 3740 nM |

species on record: Homo sapiens; assay: Selectivity index, ratio of Ki for recombinant 5-HT1D receptor (unknown origin) to Ki for recombinant 5-HT7 receptor (unknown origin)

| Compound | Ratio Ki |
| --- | --- |
| COc1ccccc1N1CCN(CCCCC(=O)n2c3ccccc3c3ccccc32)CC1 | 15 |
| O=C(CCCCCN1CCN(c2ccccc2O)CC1)n1c2ccccc2c2ccccc21 | 0.74 |
| O=C(CCCCN1CCN(c2ccccc2O)CC1)n1c2ccccc2c2ccccc21 | 16 |

target: T4, 5-hydroxytryptamine receptor 2A; assay: Binding affinity to recombinant 5-HT2A receptor (unknown origin) at 10 uM after 1.5 hrs by radioligand displacement assay

| Compound | inhibition |
| --- | --- |
| O=C(CCCCCN1CCN(c2ccccc2O)CC1)n1c2ccccc2c2ccccc21 | 13% |

target: T6, 5-hydroxytryptamine receptor 1A (Homo sapiens, UniProt P08908); assay: Binding affinity to recombinant 5-HT1A receptor (unknown origin) after 1.5 hrs by radioligand displacement assay
T6 sequence (P08908 whole entry): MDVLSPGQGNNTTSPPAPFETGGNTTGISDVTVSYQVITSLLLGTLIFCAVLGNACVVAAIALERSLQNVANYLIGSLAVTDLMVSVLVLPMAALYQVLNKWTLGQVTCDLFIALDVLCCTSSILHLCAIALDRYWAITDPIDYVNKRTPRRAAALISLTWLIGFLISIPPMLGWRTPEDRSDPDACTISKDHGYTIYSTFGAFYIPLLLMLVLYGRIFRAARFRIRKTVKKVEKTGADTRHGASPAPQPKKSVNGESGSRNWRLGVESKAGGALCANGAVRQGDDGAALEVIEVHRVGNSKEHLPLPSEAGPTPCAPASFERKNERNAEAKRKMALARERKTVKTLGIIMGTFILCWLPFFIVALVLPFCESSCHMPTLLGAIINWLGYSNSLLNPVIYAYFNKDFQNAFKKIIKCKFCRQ

| Compound | Ki |
| --- | --- |
| COc1ccccc1N1CCN(CCCCC(=O)n2c3ccccc3c3ccccc32)CC1 | 122 nM |
| O=C(CCCCCN1CCN(c2ccccc2O)CC1)n1c2ccccc2c2ccccc21 | 148 nM |
| O=C(CCCCN1CCN(c2ccccc2O)CC1)n1c2ccccc2c2ccccc21 | 22 nM |

target: T7, 5-hydroxytryptamine receptor 2C (Homo sapiens, UniProt P28335); assay: Binding affinity to recombinant 5-HT2C receptor (unknown origin) after 1.5 hrs by radioligand displacement assay
T7 sequence (P28335 whole entry): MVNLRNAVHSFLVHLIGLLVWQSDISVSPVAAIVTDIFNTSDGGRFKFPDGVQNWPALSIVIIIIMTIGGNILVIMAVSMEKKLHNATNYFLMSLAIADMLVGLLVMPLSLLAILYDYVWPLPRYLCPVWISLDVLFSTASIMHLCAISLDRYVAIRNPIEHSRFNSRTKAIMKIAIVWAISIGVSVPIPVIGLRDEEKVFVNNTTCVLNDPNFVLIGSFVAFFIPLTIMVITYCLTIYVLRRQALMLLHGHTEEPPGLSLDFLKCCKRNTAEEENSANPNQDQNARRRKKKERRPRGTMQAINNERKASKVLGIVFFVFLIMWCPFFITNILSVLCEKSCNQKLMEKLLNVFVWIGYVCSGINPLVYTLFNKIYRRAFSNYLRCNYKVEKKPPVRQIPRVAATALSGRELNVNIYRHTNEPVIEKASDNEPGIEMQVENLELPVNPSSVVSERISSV

| Compound | Ki |
| --- | --- |
| COc1ccccc1N1CCN(CCCCC(=O)n2c3ccccc3c3ccccc32)CC1 | 1170 nM |
| O=C(CCCCCN1CCN(c2ccccc2O)CC1)n1c2ccccc2c2ccccc21 | 1390 nM |
| O=C(CCCCN1CCN(c2ccccc2O)CC1)n1c2ccccc2c2ccccc21 | 1520 nM |

target: 5-hydroxytryptamine receptor 5A (Homo sapiens, UniProt P47898); assay: Binding affinity to recombinant 5-HT5 receptor (unknown origin) after 1.5 hrs by radioligand displacement assay
Sequence (P47898 whole entry): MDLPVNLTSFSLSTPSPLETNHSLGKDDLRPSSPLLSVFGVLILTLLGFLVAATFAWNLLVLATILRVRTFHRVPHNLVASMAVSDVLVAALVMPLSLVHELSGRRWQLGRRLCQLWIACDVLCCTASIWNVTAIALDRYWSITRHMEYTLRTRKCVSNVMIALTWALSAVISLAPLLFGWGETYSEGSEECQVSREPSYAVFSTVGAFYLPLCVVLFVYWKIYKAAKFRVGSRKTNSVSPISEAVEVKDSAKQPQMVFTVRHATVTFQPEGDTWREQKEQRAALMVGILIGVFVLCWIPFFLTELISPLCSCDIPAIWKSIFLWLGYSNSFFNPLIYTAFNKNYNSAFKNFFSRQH

| Compound | Ki |
| --- | --- |
| COc1ccccc1N1CCN(CCCCC(=O)n2c3ccccc3c3ccccc32)CC1 | 5 nM |
| O=C(CCCCCN1CCN(c2ccccc2O)CC1)n1c2ccccc2c2ccccc21 | 933 nM |
| O=C(CCCCN1CCN(c2ccccc2O)CC1)n1c2ccccc2c2ccccc21 | 337 nM |

target: T2, 5-hydroxytryptamine receptor 7; assay: Binding affinity to recombinant 5-HT7 receptor (unknown origin) after 1.5 hrs by radioligand displacement assay

| Compound | Ki |
| --- | --- |
| COc1ccccc1N1CCN(CCCCC(=O)n2c3ccccc3c3ccccc32)CC1 | 30 nM |
| O=C(CCCCCN1CCN(c2ccccc2O)CC1)n1c2ccccc2c2ccccc21 | 38 nM |

species on record: Homo sapiens; assay: Selectivity index, ratio of Ki for recombinant 5-HT2C receptor (unknown origin) to Ki for recombinant 5-HT7 receptor (unknown origin)

| Compound | Ratio Ki |
| --- | --- |
| COc1ccccc1N1CCN(CCCCC(=O)n2c3ccccc3c3ccccc32)CC1 | 39 |
| O=C(CCCCCN1CCN(c2ccccc2O)CC1)n1c2ccccc2c2ccccc21 | 37 |
| O=C(CCCCN1CCN(c2ccccc2O)CC1)n1c2ccccc2c2ccccc21 | 18 |

target: T5, 5-hydroxytryptamine receptor 1B; assay: Binding affinity to recombinant 5-HT1B receptor (unknown origin) at 10 uM after 1.5 hrs by radioligand displacement assay

| Compound | inhibition |
| --- | --- |
| O=C(CCCCCN1CCN(c2ccccc2O)CC1)n1c2ccccc2c2ccccc21 | 48% |
| O=C(CCCCN1CCN(c2ccccc2O)CC1)n1c2ccccc2c2ccccc21 | 37% |

species on record: Homo sapiens; assay: Selectivity index, ratio of Ki for recombinant 5-HT2B receptor (unknown origin) to Ki for recombinant 5-HT7 receptor (unknown origin)

| Compound | Ratio Ki |
| --- | --- |
| COc1ccccc1N1CCN(CCCCC(=O)n2c3ccccc3c3ccccc32)CC1 | 3.1 |
| O=C(CCCCCN1CCN(c2ccccc2O)CC1)n1c2ccccc2c2ccccc21 | 2.7 |
| O=C(CCCCN1CCN(c2ccccc2O)CC1)n1c2ccccc2c2ccccc21 | 0.97 |

species on record: Homo sapiens; assay: Selectivity index, ratio of Ki for recombinant 5-HT6 receptor (unknown origin) to Ki for recombinant 5-HT7 receptor (unknown origin)

| Compound | Ratio Ki |
| --- | --- |
| O=C(CCCCCN1CCN(c2ccccc2O)CC1)n1c2ccccc2c2ccccc21 | 16 |
| O=C(CCCCN1CCN(c2ccccc2O)CC1)n1c2ccccc2c2ccccc21 | 10 |
